Data as given in publication PMC3401513 (Molecular imaging and biology : MIB : the official …, 2012).
Where “and” joins values, the source holds several entries; their conditions need not be identical. Identical values can stand only once. Like-named read-outs stand apart in the source and are kept apart here.

Molecular target: integrin αvβ3 (Homo sapiens, UniProt P05106+P06756)
Conditions: for tumor washout (time-activity curves): MDA-MB-435 tumor, unblocked; for decrease in BpND after blocking with an excess amount of unlabeled RGD peptide: blocked vs unblocked
[1] = 60-min dynamic PET, n = 4/group
[2] = Blocked: c(RGDyK) injected 10 min before scanning, tumor region, MDA-MB-435 tumor-bearing mice, 60-min dynamic PET, mean ± SD, n = 4/group
[3] = Blocked: c(RGDyK) injected 10 min before scanning, tumor region, MDA-MB-435 tumor-bearing mice, 60-min dynamic PET, three-compartment model fit, mean ± SD, n = 4/group
[4] = MDA-MB-435 tumor-bearing mice, n = 4/group

Chain of integrin αvβ3 (P06756 31-889 limits assumed): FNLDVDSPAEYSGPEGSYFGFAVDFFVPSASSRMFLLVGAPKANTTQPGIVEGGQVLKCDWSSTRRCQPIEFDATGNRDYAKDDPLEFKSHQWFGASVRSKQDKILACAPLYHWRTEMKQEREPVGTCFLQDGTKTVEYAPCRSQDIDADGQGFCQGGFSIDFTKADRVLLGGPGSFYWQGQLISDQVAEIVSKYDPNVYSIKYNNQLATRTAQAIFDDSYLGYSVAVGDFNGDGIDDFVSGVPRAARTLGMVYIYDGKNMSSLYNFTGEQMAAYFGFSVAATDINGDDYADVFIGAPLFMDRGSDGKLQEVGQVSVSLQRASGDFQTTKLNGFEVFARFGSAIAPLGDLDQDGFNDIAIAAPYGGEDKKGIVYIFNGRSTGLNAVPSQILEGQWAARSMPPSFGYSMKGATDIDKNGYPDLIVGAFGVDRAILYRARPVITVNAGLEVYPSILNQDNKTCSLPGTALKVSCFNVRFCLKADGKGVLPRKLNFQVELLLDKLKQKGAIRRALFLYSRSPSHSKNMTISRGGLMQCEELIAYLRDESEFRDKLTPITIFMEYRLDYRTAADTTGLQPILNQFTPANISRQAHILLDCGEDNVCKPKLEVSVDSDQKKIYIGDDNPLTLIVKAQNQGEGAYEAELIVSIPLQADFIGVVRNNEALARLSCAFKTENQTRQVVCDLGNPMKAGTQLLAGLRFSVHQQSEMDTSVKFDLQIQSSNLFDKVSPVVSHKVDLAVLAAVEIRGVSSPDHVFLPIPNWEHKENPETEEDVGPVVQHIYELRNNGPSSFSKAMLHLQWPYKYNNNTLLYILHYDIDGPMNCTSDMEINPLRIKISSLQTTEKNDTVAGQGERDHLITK
Chain of integrin αvβ3 (P06756 891-1048 partner limits assumed): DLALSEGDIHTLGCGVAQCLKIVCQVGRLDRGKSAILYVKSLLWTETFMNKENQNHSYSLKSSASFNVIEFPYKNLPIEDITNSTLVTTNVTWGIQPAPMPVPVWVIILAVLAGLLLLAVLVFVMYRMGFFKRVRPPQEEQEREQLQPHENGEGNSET
Chain of integrin αvβ3 (P05106 27-788): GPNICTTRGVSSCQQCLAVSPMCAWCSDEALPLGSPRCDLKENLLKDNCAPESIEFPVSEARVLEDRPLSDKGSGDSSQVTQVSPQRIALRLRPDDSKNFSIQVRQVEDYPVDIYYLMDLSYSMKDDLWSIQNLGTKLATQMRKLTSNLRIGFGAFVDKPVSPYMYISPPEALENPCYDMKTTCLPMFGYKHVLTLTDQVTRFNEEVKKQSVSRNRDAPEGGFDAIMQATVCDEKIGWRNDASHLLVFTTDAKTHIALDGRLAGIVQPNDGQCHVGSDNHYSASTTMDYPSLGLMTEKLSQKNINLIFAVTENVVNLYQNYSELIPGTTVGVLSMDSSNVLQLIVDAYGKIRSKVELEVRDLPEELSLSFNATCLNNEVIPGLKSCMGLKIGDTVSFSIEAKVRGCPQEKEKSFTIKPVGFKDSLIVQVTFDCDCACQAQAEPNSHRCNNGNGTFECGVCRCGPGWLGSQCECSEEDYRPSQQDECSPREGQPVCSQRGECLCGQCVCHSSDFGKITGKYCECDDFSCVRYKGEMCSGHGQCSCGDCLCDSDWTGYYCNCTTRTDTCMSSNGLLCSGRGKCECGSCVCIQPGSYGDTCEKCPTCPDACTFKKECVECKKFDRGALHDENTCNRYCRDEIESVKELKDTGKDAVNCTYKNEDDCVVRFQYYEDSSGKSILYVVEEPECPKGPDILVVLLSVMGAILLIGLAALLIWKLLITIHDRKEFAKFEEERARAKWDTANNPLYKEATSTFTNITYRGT

| Substance | tumor washout (time-activity curves) [1] | BpND (binding potential = k3/k4) [2] | k3 (on-rate for specific binding) [3] [min⁻¹] | k4 (target dissociation rate) [3] [min⁻¹] | BpND (binding potential = k3/k4) (Unblock, tumor region, MDA-MB-435 tumor-bearing mice, 60-min dynamic PET, three-compartment model, mean ± SD, n = 4/group, listed as RGD Dimer) | specific bound component (Cm) in the tumor region relative to the monomer (at 1-h, separated by model fitting) | decrease in BpND after blocking with an excess amount of unlabeled RGD peptide [4] | K1 (transfer from arterial plasma to tissue) (mouse, in vivo) [mL/g/min] | BpND (binding potential = k3/k4) (Unblock, tumor region, MDA-MB-435 tumor-bearing mice, 60-min dynamic PET, three-compartment model, mean ± SD, n = 4/group) | k2 (clearance from tissue) (mouse, in vivo) [min⁻¹] | BpND (binding potential = k3/k4) (Unblock, tumor region, MDA-MB-435 tumor-bearing mice, 60-min dynamic PET, three-compartment model, mean ± SD, n = 4/group, listed as RGD Monomer) |
| --- | --- | --- | --- | --- | --- | --- | --- | --- | --- | --- | --- |
| ^18F-FP-PEG3-E[c(RGDyK)]2 [^18F-FPPRGD2] | much slower tumor washout | 1.257±0.293 | 0.064 ± 0.023 | 0.050 ± 0.009 | 5.865±0.312 | almost twice as much | ~ 80% | 0.082 ± 0.031 | – | – | – |
| ^18F-FP-c(RADyK) [^18F-FPRAD, reference compound] | most rapid tumor washout | – | – | – | – | – | – | – | 0.89 ± 0.19 and 0.893±0.192 | 0.334 ± 0.092 | – |
| ^18F-FP-c(RGDyK) [^18F-FPRGD] | – | 1.110±0.155 | 0.051 ± 0.016 | – | – | – | ~ 60% | 0.276 ± 0.256 | – | – | 2.747±0.483 |
